Results published in US4254285A, “1-Hydroxymethyl-1-1-oxo prostane derivatives of the E and F series” (American Cyanamid Company, priority 1979, dated 1981).
Read-outs that look alike come from different tables or passages of the source.

What was measured:
[1] = system: continuous respiratory spasm induced by pilocarpine; experiment: Bronchodilator Activity (Pilocarpine Assay); type: in vivo; conditions: dog, aerosol, 3.2 mg/ml; for inhibition at 3200 µg/mL: Canis lupus familiaris, inhaled or nasal
Description: The PGE compounds of this invention also have bronchodilator activity as determined in a test using dogs anesthetized, artificially ventilated and submitted to a continuous respiratory spasm induced by pilocarpine. Mongrel dogs of either sex weighing between 5 and 10 kg are used. They are premedicated with morphine HCl by subcutaneous injection at 1.5 mg/Kg. An intravenous perfusion of 5% (W/V) chloralose is started 1/2 hour after the morphine injection in such a way that 60 mg/Kg are administered within 15 minutes. After completion, a continuous perfusion of 10 mg/Kg hour is maintained throughout the experiment. The dogs are artificially ventilated by means of a Starling pump at a rate of 20 breaths/minute. The volume is adjusted according to the weight of the animal. [Kleinman and Radford, J. Appl. Physiol., 19, 360 (1964)]. All the measurements are made with the dogs positioned supine in a heated, V-shaped table. Curarization is obtained by succinylcholine chloride using a starting injection of 3 mg/Kg lasting 3 minutes, followed by a continuous perfusion of 0.1 mg/Kg/minute. The respiratory spasm is induced by a starting injection of 400 mcg/Kg of pilocarpine HCl lasting 5 minutes. An increase or decrease in the dose of pilocarpine HCl may occur as a function of the observed effect on airway's resistance. A 15 minute delay is observed before the start of a continuous perfusion of pilocarpine HCl at a dose of 4 mcg/Kg/minute to maintain a constant spasm during the test. A metallic cannula is inserted and fixed, after tracheotomy, into the upper part of the trachea. The two cephalic veins and the two femoral veins are catheterized to inject the various agents. The femoral artery is catheterized to measure the systemic blood pressure. An esophageal balloon (11 cm×2.5 cm) is inserted into the lower third of the oesophagus to measure the endothoracic pressure. The measurement of air flow is made with a […] pneumotachograph connected to the tracheal tube. The transpulmonary pressure is measured as follows: The tracheal cannula is equipped with a stainless steel axial tube (1.5 mm) which is closed at its distal end and projected 2.5 cm beyond the end of the cannula. Three holes with a diameter of one mm are pierced on this latter segment. This tube, which is used to measure the tracheal pressure, is connected to one of the two chambers of a Sanborn 267 B/C differential transducer. The other chamber is connected to the esophageal balloon by means of a polyethylene catheter of the same length and characteristics as the balloon's. The airway's resistance, expressed in cm of water/liter/second, is measured by subtracting from the electrical equivalent of the transpulmonary pressure, a voltage proportional to the flow so as to synchronize the pressure and volume signals on the oscilloscope [Mead and Whittenberger, J. Appl. Physiol, 5, 779 (1953)]. The test compounds are administered by an Aerosol® route. The micronebulizer of a Bird Mark 7 respirator is fitted on the metallic cannula just after the pneumotachograph. The "puff" of the test compound, in Aerosol® is driven by a 2 Kg/cm^2 pressure, allowed into the micronebulizer just during one inspiration cycle. The micronebulizer is fitted on the respiratory tube only during the "puff". It is weighed just before and just after administration to determine the amount of test compound administered.

[2] = system: bronchospasms elicited by histamine; experiment: Bronchodilator Activity (Konzett Assay), histamine; type: in vivo; conditions: guinea pig, intravenous, spasmogen histamine, three logarithmic cumulative doses
Description: (§1) The bronchodilator activity of some of the PGE compounds of this invention is determined in guinea pigs against bronchospasms elicited by intravenous injections of 5-hydroxytryptamine, histamine or acetylcholine by the Konzett procedure. [See J. Lulling, P. Lievens, F. El Sayed and J. Prignot, Arzneimittel-Forschung, 18, 995 (1968)].
(§2) In the Table B which follows, bronchodilator activity for representative compounds of this invention against one or more of the three spasmogenic agents is expressed as an ED50 determined from the results obtained with three logarithmic cumulative intravenous doses.

[3] = system: bronchospasms elicited by acetylcholine; experiment: Bronchodilator Activity (Konzett Assay), acetylcholine; type: in vivo; conditions: guinea pig, intravenous, spasmogen acetylcholine, three logarithmic cumulative doses
Description: as §1, §2

[4] = system: bronchospasms elicited by 5-hydroxytryptamine; experiment: Bronchodilator Activity (Konzett Assay), 5-hydroxytryptamine; type: in vivo; conditions: guinea pig, intravenous, spasmogen 5-hydroxytryptamine, three logarithmic cumulative doses
Description: as §1, §2

[5] = system: indomethacin-induced gastric ulcers; type: in vivo, rat; conditions: indomethacin-only treatment, 10 mg/kg subcut.
Description: (§3) Male Wistar rats (Royal Hart, New Hampton, N.Y.), weighing 190-210 g are distributed among control and treatment groups (5 rats/group) and housed one rat per cage. During the 52 hour test period, the rats are permitted free access to food and drinking water for the first 33 hours but are fasted overnight prior to sacrifice. Indomethacin is suspended (4 mg/ml) in a 1.5% starch-phosphate buffer solution (SPBS). 1,9-dioxo-11α,16-dihydroxy-16-methyl-1-hydroxymethyl-13-transprostene is dissolved at 10 mg/ml in ethanol and then diluted in SPBS to 0.1 mg/ml or to a lower concentration as required. The indomethacin suspension is injected subcutaneously (10 mg/kg) and the prostaglandin suspension is given by gavage (0.5 mg/kg or less) b.i.d. on day 0 and 1. Rats receive only one dose of prostaglandin and indomethacin on day 2 and 6 hours later are killed with chloroform. The stomachs are dissected, opened along the greater curvature, and rinsed briefly in tap water. They are then spread, mucosal surface facing upward and pinned onto uniform size corks (2.5 inch diameter) individually numbered on the back. The identification number for each stomach is unknown to the investigator and the stomachs are randomly graded according to the following scheme:
1--Petechial hemorrhage, or pin-point ulcers
2--One or two small ulcers or hemorrhagic erosions
3--Many areas of hemorrhage erosion or ulcers, a few large
4--Massive areas of hemorrhagic erosion or many ulcers, mainly large
(§4) ^a Treatment is B.I.D. on days 0 and 1, and once on day 2, six hours
(§5) prior to sacrifice for scoring.

[6] = system: indomethacin-induced intestinal ulcers; type: in vivo, rat; conditions: indomethacin-only treatment, 10 mg/kg subcut.
Description: as §3
Intestines are also removed and examined for the presence of ulcers, which are graded according to the scheme outlined below.
1--Mucosa thin, petechial hemorrhage
2--"Blow-outs", when intestine inflated with air
3--Few ulcers. Gut more fragile than normal, tears along line of mesentery attachements when removed
4--Many large perforating lesions. Adhesions. Gut hemorrhagic and very fragile. Tears readily and cannot be removed intact. Graded in situ.
as §4, §5

[7] = type: in vivo, rat; conditions: indomethacin-only treatment, 10 mg/kg subcut.
Description: as §3, §4, §5

[8] = system: platelet aggregation induced by adenosine diphosphate; experiment: Inhibition of platelet aggregation in vitro, adenosine diphosphate; type: cell-based; conditions: 0.025 mg/ml, human plasma
Excerpt: (§6) It is well known that platelet aggregation inhibitors may be useful as anti-thrombotic drugs. Inhibition of platelet aggregation can be conveniently measured in vitro by monitoring changes in optical density and/or light transmission in platelet rich plasma upon addition of suitable aggregating agents such as adenosine diphosphate, epinephrine, thrombin or collagen. Alternatively, platelet aggregation can be measured in vitro using platelet rich plasma obtained at various time intervals from animals given inhibitors by an oral or parenteral route.
(§7) […] is incubated with modified Tyrode's solution in a proportion of 40-50% human protein rich plasma. The test compounds are added at varying concentrations and after 5 minutes incubation, an aggregating agent such as adenosine diphosphate or collagen is added. The change in optical density (light transmission) is monitored by eye and inhibition is recorded as a (-) or lack of inhibition is recorded as a (+). Test compounds are considered active if they inhibit adenosine diphosphate or collagen induced aggregation at a concentration of 0.025 mg/ml or less within 5-10 minutes.

[9] = system: platelet aggregation induced by collagen; experiment: Inhibition of platelet aggregation in vitro, collagen; type: cell-based; conditions: 0.025 mg/ml, human plasma
Excerpt: as §6, §7

[10] = 5 min, 5 min. after drug administration
[11] = 0.5 h, 30 min. after drug administration
[12] = 1 h, 60 min. after drug administration
[13] = Cavia porcellus, read-out: ED50

Compound	inhibition at 3200 µg/mL [1, 10] [%]	inhibition at 3200 µg/mL [1, 11] [%]	inhibition at 3200 µg/mL [1, 12] [%]	ED50 [2, 13] [µg/kg]	ED50 [3, 13] [µg/kg]	ED50 [4, 13] [µg/kg]	other results
CCCCC1(C(O)C=CC2C(O)CC(=O)C2CC=CCCCC(=O)CO)CCC1 (stereo not drawn) [1,9-dioxo-11α,15-dihydroxy-1-hydroxymethyl-16,16-trimethylene-13-trans-5-cis-prostadiene]	80	74	68	–	–	–	–
CCCCCC(C)(O)CC=CC1C(O)CC(=O)C1CC=CCCCC(=O)CO (stereo not drawn) [1,9-dioxo-11α,16-dihydroxy-16,20-dimethyl-1-hydroxymethyl-13-trans-5-cis-prostadiene]	–	–	–	8.8	19	47	–
CCCCCC(C)(O)CC=CC1C(O)CC(=O)C1CCCCCCC(=O)CO (stereo not drawn) [1,9-dioxo-11α,16-dihydroxy-16,20-dimethyl-1-hydroxymethyl-13-trans-prostene]	55	70	55	–	–	–	–
COc1ccc2c(c1)c(CC(=O)O)c(C)n2C(=O)c1ccc(Cl)cc1 [Indomethacin, reference compound]	–	–	–	–	–	–	Gastric Ulcer Score (Mean ± S.E.M.) [5]: 2.9 ± 0.2; Intestinal Ulcer Score (Mean ± S.E.M.) [6]: 3.7 ± 0.2; Hematocrit (Mean ± S.E.M.) [7]: 33.1 ± 2.1
C=CC(O)(CC=CC1C(O)CC(=O)C1CCCCCCC(=O)CO)CCCC (stereo not drawn) [1,9-dioxo-11α,16-dihydroxy-1-hydroxymethyl-16-vinyl-13-trans-prostene]	90	80	70	0.25	1.7	0.147	–
CCCCC1(C(O)C=CC2C(O)CC(=O)C2CCCCCCC(=O)CO)CCC1 (stereo not drawn) [1,9-dioxo-11α,15-dihydroxy-1-hydroxymethyl-16,16-trimethylene-13-trans-prostene]	90	75	60	0.734	1.3	1.4	–
C=CC(O)(CC=CC1C(O)CC(=O)C1CC=CCCCC(=O)COC(C)=O)CCCC (stereo not drawn) [1,9-Dioxo-11α,16-dihydroxy-16-vinyl-1-acetoxymethyl-5-cis-13-trans-prostadiene]	92	75	55	0.78	0.795	–	–
C=CC(O)(CC=CC1C(O)CC(=O)C1CC=CCCCC(=O)CO)CCCC (stereo not drawn)	80	80	66	0.254	2.66	0.402	–
CCCCCC(O)CCC1CCC(=O)C1CCCCCCC(=O)CO [l-1,9-dioxo-15(S)-hydroxy-1-hydroxymethyl prostane]	70	45	30	0.471	–	0.89	–
CCCCCC(O)C=CC1C(O)CC(=O)C1CCCCCCC(=O)CO (stereo not drawn) [1,9-dioxo-11α,15α-dihydroxy-1-hydroxymethyl-13-trans-prostene]	80	40	15	0.547	3.9	0.936	–
CCCCC(O)(CC)CC=CC1C(O)CC(=O)C1CC=CCCCC(=O)CO (stereo not drawn) [1,9-dioxo-11α,16-dihydroxy-16-ethyl-1-hydroxymethyl-5-cis-13-trans-prostadiene]	70	50	35	–	–	–	–
CCCCCC(C)(O)/C=C/C1CCC(=O)C1CCCCCCC(=O)CO (stereo not drawn) [1,9-dioxo-15α-hydroxy-15-methyl-1-hydroxymethyl-13-trans-prostene]	–	–	–	–	–	–	% Inhibition of pilocarpine induced spasm ([1]; 5 min. after drug administration): 37%; % Inhibition of pilocarpine induced spasm ([1]; 30 min. after drug administration): 30%; % Inhibition of pilocarpine induced spasm ([1]; 60 min. after drug administration): 30%; ED50 [2]: 0.373 µg/kg; ED50 [3]: 0.293 µg/kg; ED50 [4]: 0.288 µg/kg
CCCCC1(C(O)/C=C/C2C(O)CC(=O)C2C/C=C\CCCC=O)CCC1 (stereo not drawn) [1,9-dioxo-11α,15α-dihydroxy-16,16-trimethylene-5-cis,13-trans-prostadiene]	–	–	–	–	–	–	ED50 [2]: 0.781 µg/kg; ED50 [3]: 0.995 µg/kg; ED50 [4]: 1.49 µg/kg
CCCCCC(O)/C=C/C1CCC(=O)C1CCCCCCC(=O)CO (stereo not drawn)	–	–	–	–	–	–	inhibition of platelet aggregation [8]: shows inhibition of platelet aggregation; inhibition of platelet aggregation [9]: shows inhibition of platelet aggregation
